Data reported in PMC8126888 (RSC Medicinal Chemistry, 2020).
Where two headings read alike, the source gives them in different places.

Key:
in vitro = settings: human
[1] = tested on: primary peritoneal mouse macrophages (PMM); assay: cells; settings: Macrophage
[2] = tested on: Leishmania infantum MHOM/MA(BE)/67/ITMAP263 intracellular amastigotes; assay: microbe, parasite or virus in culture; settings: Macrophage, in Mus musculus
[3] = tested on: Trypanosoma cruzi, Tulahuen CL2, beta-galactosidase strain; assay: microbe, parasite or virus in culture
[4] = read-out: L. Inf. pIC50 (converted)
[5] = read-out: L. infantum MHOM/MA(BE)/67/ITMAP263 intracellular amastigotes IC50
[6] = MRC5, read-out: T. cruzi Tulahuen C4 (LacZ) IC50
[7] = read-out: L. Inf. pIC50, from L. infantum intracellular amastigote IC50 (converted)
[8] = read-out: L. infantum MHOM/MA(BE)/67/ITMAP263 intracellular amastigotes IC50, intracellular amastigotes
[9] = read-out: PMM pIC50 (converted)
[10] = read-out: L. inf. pIC50, intracellular amastigotes in PMM (converted), geometric mean of a minimum of two experiments ± standard error

Compound | CC50 at 3 days (in vitro) [µM] | IC50 ([1]; read-out: PMM IC50) [µM] | IC50 [2, 4] [µM] | IC50 [2, 5] [µM] | IC50 [3, 6] [µM] | further results
CC(=O)Nc1ccc(Cl)c(C(=O)NC(Cn2ccnc2)c2ccccc2)c1 (stereo not drawn) [DNDI0003363391] | > 55.4 | > 55.4 | > 55.4 | > 55.4 | > 55.4 | –
COc1ccc(Cl)cc1S(=O)(=O)N(CC(=O)N1CCOCC1)Cc1ccccc1 [SCYX0001379806] | > 32 | > 32 | > 32 | > 32 | > 32 | –
COc1ccc(Cl)cc1S(=O)(=O)N(CC(=O)N1CCCC1)Cc1ccccc1 [DNDI0003363389] | > 32 | > 32 | 15.5 | 15.5 | > 32 | –
COc1ccc(OC)c(S(=O)(=O)n2cc(C)nc2-c2ccccc2)c1 [DNDI0003363402] | > 55.4 | > 55.4 | > 55.4 | > 55.4 | > 55.4 | –
COc1ccc(C)cc1S(=O)(=O)N(CC(=O)NCc1ccc(Cl)cc1)Cc1ccccc1 [DNDI0003363396] | > 55.4 | > 55.4 | 25.7 | 25.7 | 6.02 | –
O=C(Cn1ccnc1[N+](=O)[O-])NCc1ccccc1 [Benznidazole, reference compound] | – | – | – | – | – | IC50 ([3]; MRC5, […], reference drug, T. cruzi, 7 days): 2 to 5 µM
COc1ccc(OC)c(S(=O)(=O)N2CCCC2c2ccc(F)cc2)c1 (stereo not drawn) [DNDI0003363388] | > 32 | > 32 | 9.55 | 9.59 | 25.6 | –
COc1ccc(C)cc1S(=O)(=O)N(CC(=O)O)Cc1ccccc1 [DNDI0003363399] | > 55.4 | > 55.4 | > 55.4 | > 55.4 | > 55.4 | –
COc1ccc(C)cc1S(=O)(=O)N(CC(=O)N1CCOCC1)Cc1ccccc1 [DNDI0003363393] | > 55.4 | > 55.4 | 19.1 | 18.9 | > 55.4 | –
COCCN(Cc1ccccc1)S(=O)(=O)c1cc(C(=O)N2CCNCC2)ccc1OC [DNDI0003392127] | > 64 | – | – | – | – | IC50 ([1]; read-out: PMM IC50 (uM)): > 64 µM; IC50 [2, 7]: 36.3 µM; IC50 ([2]; read-out: L. infantum MHOM/MA(BE)/67/ITMAP263 intracellular amastigotes IC50 (uM), intracellular amastigotes): 35.9 µM; IC50 ([3]; MRC5, read-out: T. cruzi Tulahuen C4 (LacZ) IC50 (uM)): 13.4 µM
COc1ccc(C)cc1S(=O)(=O)N(CC(N)=O)Cc1ccccc1 [DNDI0003363397] | > 55.4 | > 55.4 | > 55.4 | > 55.4 | > 55.4 | –
CN(C)CCN(Cc1ccccc1)S(=O)(=O)c1ccccc1OC(F)(F)F [DNDI0003367256] | 53.4 | 45.2 | – | – | 32 | IC50 [2, 7]: 8.71 µM; IC50 [2, 8]: 8.64 µM
COc1ccccc1S(=O)(=O)N(Cc1ccccc1)Cc1ccccc1 [Compound 10] | – | – | – | – | – | IC50 [1, 9]: > 64.6 µM; IC50 [2, 10]: 0.331 µM
O=S(=O)(c1cc(F)ccc1F)N(Cc1ccc(F)cc1)Cc1ccc(F)cc1 [DNDI0003371158] | > 64 | > 64 | – | – | > 64 | IC50 [2, 7]: > 64 µM; IC50 [2, 8]: > 64 µM
COCC1COc2ccc(F)cc2S(=O)(=O)N1Cc1ccccc1 (stereo not drawn) [DNDI0003369451] | > 64 | > 64 | – | – | > 64 | IC50 [2, 7]: > 64 µM; IC50 [2, 8]: > 64 µM
CC[C@]1(O)C[C@@H]2CN(CCc3c([nH]c4ccccc34)[C@@](C(=O)OC)(c3cc4c(cc3OC)N(C)[C@H]3[C@@](O)(C(=O)OC)[C@H](OC(C)=O)[C@]5(CC)C=CCN6CC[C@]43[C@@H]65)C2)C1 [vinblastine, reference compound] | < 0.01 | – | – | – | – | –
O=S(=O)(c1cc(F)ccc1F)N(Cc1ccc(F)cc1)Cc1ccc(F)cc1 [Compound 12] | – | – | – | – | – | IC50 [1, 9]: > 64.6 µM; IC50 [2, 10]: > 64.6 µM
CC(=O)O[C@H]1C(=O)[C@@]2(C)[C@H]([C@H](OC(=O)c3ccccc3)[C@]3(O)C[C@H](OC(=O)[C@H](O)[C@@H](NC(=O)c4ccccc4)c4ccccc4)C(C)=C1C3(C)C)[C@]1(OC(C)=O)CO[C@@H]1C[C@@H]2O [paclitaxel, reference compound] | < 0.01 | – | – | – | – | –
